Experimental data: US20040208828A1, “Enantiomer-pure (4S,8S)- and (4R,8R)-4-p-nitrobenzyl-8-methyl-3,6,9-triaza-3N,6N,9N-tricarboxymethyl-1,11-undecanedioic acid and derivatives thereof, process for their production and use for the production of pharmaceutical agents” (priority 2003, published 2004)

Columns and labels:
[1] = McMurry et al., J. Med. Chem. (1998), 41, 3546-3549; cited from earlier work
[2] = compared to the unsubstituted DTPA; cited from earlier work
[3] = complex stability / complexing properties, comparison of stereoisomers; format: physicochemical; details: comparison of configurations (4S,8S)/(4R,8R) with (4S,8R)/(4R,8S)
Text: (§1) In this case, as was discovered, the configuration of methyl- and benzyl substituent must be present as (4S,8S) (see compound Va) or (4R,8R) (see compound Vb) to achieve the described positive effect.

[4] = thermodynamic stability constant of the metal complex (logKY); format: physicochemical; details: in vitro
Text: as §1

[5] = competition complexation: mixture of one equivalent each of Va, VIa and Gd(III) salt; format: physicochemical; details: one equivalent each of Va (R=-NO2)
Text: as §1

[6] = radiotoxicity of the metal complex in vivo; details: compared to compound VIa
Text: as §1

Which “in-vitro and in-vivo stability” value [1] does the source give for `O=C(O)CN(CC(=O)O)[C@H](Cc1ccc([N+](=O)[O-])cc1)CN(CC(=O)O)[C@@H]1CCCC[C@H]1N(CC(=O)O)CC(=O)O` [II] here?
The value was “higher in-vitro and in-vivo stability than compound III”.

Which “complex stability (in words)” value [2] does the source give for `CC(CN(CC(=O)O)C[C@H](Cc1ccc([N+](=O)[O-])cc1)N(CC(=O)O)CC(=O)O)N(CC(=O)O)CC(=O)O` (stereo partly shown) [MX-DTPA] here?
The value was “increased complex stability compared to the unsubstituted DTPA”.

What does the source list for `C[C@@H](CN(CC(=O)O)C[C@H](Cc1ccc([N+](=O)[O-])cc1)N(CC(=O)O)CC(=O)O)N(CC(=O)O)CC(=O)O` [Va]?
complex stability / complexing properties (in words) [3]: considerably better complexing properties than compounds VIa and VIb; thermodynamic stability constant logKY [4]: 24.7±0.7; Gd complex formed in competition [5]: almost exclusively the Gd complex of compound Va is formed; radiotoxicity of the metal complex [6]: reduced in vivo compared to compound VIa

With `C[C@H](CN(CC(=O)O)C[C@@H](Cc1ccc([N+](=O)[O-])cc1)N(CC(=O)O)CC(=O)O)N(CC(=O)O)CC(=O)O` [Vb, (R,R)-{[2-{[2-(Bis-carboxymethyl-amino)-propyl]-carboxymethyl-amino}-1-(4-nitro-benzyl)-ethyl]-carboxymethyl-amino}-acetic acid] as the compound, how does the “complex stability / complexing properties (in words)” value [3] read?
The value was “considerably better complexing properties than compounds VIa and VIb”.
